Measured values published in US11247990B1, “Bicyclic fused pyridine compounds as inhibitors of TAM kinases” (ARRAY BIOPHARMA INC., priority 2017, dated 2022).

These compounds were tested against His-tagged recombinant human MER cytoplasmic domain (Homo sapiens (Human), UniProt Q12866) (assay: MER Enzyme Assay (LanthaScreen Eu Kinase Binding, TR-FRET)). Details: averaged IC50.
Experimental: Compounds of Formula I were screened for their ability to inhibit MER kinase using Invitrogen's LanthaScreen™ Eu Kinase Binding technology. […] After a 60-minute incubation at 22° C., the reaction was measured using a PerkinElmer EnVision multimode plate reader via TR-FRET dual wavelength detection, and the percent of control (POC) was calculated using a ratiometric emission factor. […] The POC values are fit to a 4 parameter logistic curve and the IC50 value is point where the curve crosses 50 POC.

Sequence of His-tagged recombinant human MER cytoplasmic domain (Q12866 527-999): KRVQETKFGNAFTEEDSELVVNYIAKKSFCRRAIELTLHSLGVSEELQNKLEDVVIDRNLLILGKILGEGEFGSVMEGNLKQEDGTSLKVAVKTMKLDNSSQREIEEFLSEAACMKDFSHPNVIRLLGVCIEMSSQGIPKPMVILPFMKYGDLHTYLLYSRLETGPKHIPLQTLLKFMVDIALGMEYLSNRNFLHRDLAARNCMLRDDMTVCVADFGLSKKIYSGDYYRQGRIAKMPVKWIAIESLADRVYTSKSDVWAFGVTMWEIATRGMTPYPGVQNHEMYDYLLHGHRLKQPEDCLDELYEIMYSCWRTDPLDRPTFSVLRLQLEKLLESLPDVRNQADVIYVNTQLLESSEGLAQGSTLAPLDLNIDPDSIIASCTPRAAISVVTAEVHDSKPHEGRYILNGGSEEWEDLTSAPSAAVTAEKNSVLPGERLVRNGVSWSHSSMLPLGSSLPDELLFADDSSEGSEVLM

IC50, < 0.01 µM:
CCNc1cc2c(cn1)c(-c1cnn(C)c1)nn2[C@H]1CC[C@@H](Oc2nccnc2C)CC1 [Example 189, N-ethyl-3-(1-methyl-1H-pyrazol-4-yl)-1-((1s,4s)-4-((3-methylpyrazin-2-yl)oxy)cyclohexyl)-1H-pyrazolo[4,3-c]pyridin-6-amine]
CCNc1cc2c(cn1)c(-c1cnn(C(C)(C)C#N)c1)nn2[C@H]1CC[C@@H](Oc2nccnc2C)CC1 [Example 181, 2-(4-(6-(ethylamino)-1-((1s,4s)-4-((3-methylpyrazin-2-yl)oxy)cyclohexyl)-1H-pyrazolo[4,3-c]pyridin-3-yl)-1H-pyrazol-1-yl)-2-methylpropanenitrile]
CCNc1cc2c(cn1)c(-c1cnn(C)c1)nn2[C@H]1CC[C@@H](Oc2cc(C#N)ccn2)CC1 [Example 200, 2-(((1s,4s)-4-(6-(ethylamino)-3-(1-methyl-1H-pyrazol-4-yl)-1H-pyrazolo[4,3-c]pyridin-1-yl)cyclohexyl)oxy)isonicotinonitrile]
CCNc1cc2c(cn1)c(-c1cnn(C)c1)nn2[C@H]1CC[C@@H](Oc2cccnc2C)CC1 [Example 185, N-ethyl-3-(1-methyl-1H-pyrazol-4-yl)-1-((1s,4s)-4-((2-methylpyridin-3-yl)oxy)cyclohexyl)-1H-pyrazolo[4,3-c]pyridin-6-amine]
CCNc1cc2c(cn1)c(-c1cnn(C[C@H](O)[C@H](C)O)c1)nn2[C@H]1CC[C@@H](Oc2ccccc2F)CC1 [Example 430, (2S,3S)-1-(4-(6-(ethylamino)-1-((1s,4R)-4-(2-fluorophenoxy)cyclohexyl)-1H-pyrazolo[4,3-c]pyridin-3-yl)-1H-pyrazol-1-yl)butane-2,3-diol]
CCNc1cc2c(cn1)c(-c1cnn(C)c1)nn2[C@H]1CC[C@@H](Oc2cccnc2C(C)C)CC1 [Example 192, N-ethyl-1-((1s,4s)-4-((2-isopropylpyridin-3-yl)oxy)cyclohexyl)-3-(1-methyl-1H-pyrazol-4-yl)-1H-pyrazolo[4,3-c]pyridin-6-amine]
CCNc1cc2c(cn1)c(-c1cnn(C(CO)CO)c1)nn2[C@H]1CC[C@@H](Oc2cccc(F)c2)CC1 [Example 412, 2-(4-(6-(ethylamino)-1-((1s,4s)-4-(3-fluorophenoxy)cyclohexyl)-1H-pyrazolo[4,3-c]pyridin-3-yl)-1H-pyrazol-1-yl)propane-1,3-diol]
CCNc1cc2c(cn1)c(-c1cnn(C[C@H](O)C(C)(C)O)c1)nn2[C@H]1CC[C@@H](Oc2cccc(Cl)c2)CC1 [Example 441, (S)-1-(4-(1-((1s,4R)-4-(3-chlorophenoxy)cyclohexyl)-6-(ethylainino)-1H-pyrazolo[4,3-c]pyridin-3-yl)-1H-pyrazol-1-yl)-3-methylbutane-2,3-diol]
CCNc1cc2c(cn1)c(-c1ccc(CN3CCN(C)CC3)cc1)nn2[C@H]1CC[C@@H](Oc2cnn(C)c2)CC1 [Example 233, N-ethyl-1-((1s,4s)-4-((1-methyl-1H-pyrazol-4-yl)oxy)cyclohexyl)-3-(4-((4-methylpiperazin-1-yl)methyl)phenyl)-1H-pyrazolo[4,3-c]pyridin-6-amine]
CCNc1cc2c(cn1)c(-c1ccc(CN3CC[C@@H](OC)C3)cc1)nn2[C@H]1CC[C@@H](Oc2ccc(=O)n(C)n2)CC1 [Example 83, 6-(((1S,4s)-4-(6-(ethylamino)-3-(4-(((R)-3-methoxypyrrolidin-1-yl)methyl)phenyl)-1H-pyrazolo[4,3-c]pyridin-1-yl)cyclohexyl)oxy)-2-methylpyridazin-3(2H)-one]
CCNc1cc2c(cn1)c(-c1cnn(C(CO)CO)c1)nn2[C@H]1CC[C@@H](Oc2cc(F)ccc2F)CC1 [Example 416, 2-(4-(1-((1s,4s)-4-(2,5-difluorophenoxy)cyclohexyl)-6-(ethylamino)-1H-pyrazolo[4,3-c]pyridin-3-yl)-1H-pyrazol-1-yl)propane-1,3-diol]
CCNc1cc2c(cn1)c(-c1cnn(C(CO)CO)c1)nn2[C@H]1CC[C@@H](Oc2ccc(F)c(F)c2)CC1 [Example 418, 2-(4-(1-((1s,4s)-4-(3,4-difluorophenoxy)cyclohexyl)-6-(ethylamino)-1H-pyrazolo[4,3-c]pyridin-3-yl)-1H-pyrazol-1-yl)propane-1,3-diol]
CNc1cc2c(cn1)c(-c1cnn(C)c1)nn2[C@H]1CC[C@@H](Oc2nccc(C(F)(F)F)n2)CC1 [Example 153, N-methyl-3-(1-methyl-1H-pyrazol-4-yl)-1-((1s,4s)-4-((4-(trifluoromethyl)pyrimidin-2-yl)oxy)cyclohexyl)-1H-pyrazolo[4,3-c]pyridin-6-amine]
CCNc1cc2c(cn1)c(-c1cnn(C[C@@H](O)C(C)(C)O)c1)nn2[C@H]1CC[C@@H](Oc2cccc(Cl)c2)CC1 [Example 443, (R)-1-(4-(1-((1s,4S)-4-(3-chlorophenoxy)cyclohexyl)-6-(ethylamino)-1H-pyrazolo[4,3-c]pyridin-3-yl)-1H-pyrazol-1-yl)-3-methylbutane-2,3-diol]
CCNc1cc2c(cn1)c(-c1cnn(C)c1)nn2[C@H]1CC[C@@H](Oc2cccnc2C2CC2)CC1 [Example 186, 1-((1s,4s)-4-((2-cyclopropylpyridin-3-yl)oxy)cyclohexyl)-N-ethyl-3-(1-methyl-1H-pyrazol-4-yl)-1H-pyrazolo[4,3-c]pyridin-6-amine]
CCNc1cc2c(cn1)c(Br)nn2[C@H]1CC[C@@H](Oc2ccc(=O)[nH]c2C(F)(F)F)CC1 [Example 106]
CCNc1cc2c(cn1)c(-c1ccc(CN3CC(C)(O)C3)cc1)nn2[C@H]1CC[C@@H](Oc2ccc(=O)n(C)n2)CC1 [Example 90, 6-(((1s,4s)-4-(6-(ethylamino)-3-(4-((3-hydroxy-3-methylazetidin-1-yl)methyl)phenyl)-1H-pyrazolo[4,3-c]pyridin-1-yl)cyclohexyl)oxy)-2-methylpyridazin-3(2H)-one]
CCNc1cc2c(cn1)c(-c1ccn(C)c(=O)c1)nn2[C@H]1CC[C@@H](Oc2ccccc2F)CC1 [Example 398, 4-(6-(ethylamino)-1-((1s,4s)-4-(2-fluorophenoxy)cyclohexyl)-1H-pyrazolo[4,3-c]pyridin-3-yl)-1-methylpyridin-2(1H)-one]
CCNc1cc2c(cn1)c(-c1ccc(CN3CC[C@@H](CO)C3)cc1)nn2[C@H]1CC[C@@H](Oc2ccc(=O)n(C)n2)CC1 [Example 95, 6-(((1S,4s)-4-(6-(ethylamino)-3-(4-(((R)-3-(hydroxymethyl)pyrrolidin-1-yl)methyl)phenyl)-1H-pyrazolo[4,3-c]pyridin-1-yl)cyclohexyl)oxy)-2-methylpyridazin-3(2H)-one]
CNc1cc2c(cn1)c(-c1cnn(C)c1)nn2[C@H]1CC[C@@H](Oc2ccc(=O)[nH]c2)CC1 [Example 25, 5-(((1s,4s)-4-(3-(1-methyl-1H-pyrazol-4-yl)-6-(methylamino)-1H-pyrazolo[4,3-c]pyridin-1-yl)cyclohexyl)oxy)pyridin-2(1H)-one]
